The subject of this assay is primary rat microglia. In words: Inhibition of microglia activation (Aβ-peptide-activated primary rat microglia, MTS reduction). It counts as cell-based. The note with it: 168 h, test of Example 307, metabolic activity via MTS reduction on cultivation day 7, relative to DMSO control. For orientation: Tetrazolium dyes change colour on reduction, which living cells bring about.

Usually IC50 stands for the concentration that gives 50% inhibition.

As for `Cc1ccc(-n2c(-c3ccccc3)nc3ccc(OCCCCCC(=O)OC(C)C)cc32)cc1` [Example 49, 6-[[1-(4-Methylphenyl)-2-phenyl-1H-benzimidazol-6-yl]oxy]hexanoic acid isopropyl ester], the IC50 was determined as 750 nM.

Source of the values: US7115645B2, “1,2 diarylbenzimidazoles and their pharmaceutical use” (Schering Aktiengesellschaft, priority 2000, dated 2006).
